Reference: patent US7855202B2, “Imidazopyridine derivatives as A2B adenosine receptor antagonists” (Laboratorios Almirall, S.A., priority 2005, dated 2010)

What follows are molecules tested against T1, human A2B receptor (Homo sapiens, UniProt P29275) (assay: Adenosine 2B receptor subtype competition radioligand binding assay ([3H]-DPCPX, membranes of HEK293 cells)). Settings: binding activity, 35 nM [3H]-DPCPX, A2B membranes from HEK293 cells.
T1 construct: membranes prepared from them
T1 sequence (P29275 1-332): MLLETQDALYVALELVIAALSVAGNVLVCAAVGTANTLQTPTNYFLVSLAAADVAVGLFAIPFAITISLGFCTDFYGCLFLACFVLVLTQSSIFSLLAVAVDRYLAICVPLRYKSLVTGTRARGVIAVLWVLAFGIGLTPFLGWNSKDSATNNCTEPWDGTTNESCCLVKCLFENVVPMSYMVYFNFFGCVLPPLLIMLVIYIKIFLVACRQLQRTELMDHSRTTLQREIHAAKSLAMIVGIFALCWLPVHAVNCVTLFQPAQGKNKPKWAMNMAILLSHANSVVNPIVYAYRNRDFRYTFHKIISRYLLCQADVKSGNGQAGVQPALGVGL
Procedure: Adenosine 2B Receptor Subtype Competition Radioligand Binding Assay
A2B membranes were prepared from HEK293 cells stably expressing the human A2B receptor that were purchased from Euroscreen (ES-013-C). Competition assays were carried out incubating in polypropylene 96 well-plates (no 267245, NUNC) containing 2 μl of either 1% DMSO solution, test compound or 100 μM 5′NECA (SIGMA E-2387) for non-specific binding, 100 μg of A2B-membranes (prepared in Tris-HCl 50 mM pH 6.5, MgCl2 10 mM, EDTA 1 mM, benzamidine 0.1 mM; buffer A) and 35 nM [^3H]-DPCPX (TRK1064, 128 Ci/mmol, Amersham), in a total volume of 200 μl of buffer A+2 UI/ml adenosine deaminase, for 60 minutes at room temperature. At the end of the incubation, samples were transferred to a GF/C filter plates (Milipore MAFCNOB50) pretreated for 15 min. with 250 μl of Tris-HCl 50 mM pH 6.5 (Buffer B). Samples were then filtered 4 times with 250 μl of buffer B. Samples were counted using 30 μl of Hisafe II (Perkin Elmer) in a Trilux counter.

Row | Ki [nM] | Structure (SMILES)
1 | 0.8 | COc1ccc(-c2nc3cc(-c4ccncc4F)c(-c4cccnc4)nc3[nH]2)cc1 [Example 6, 6-(3-Fluoropyridin-4-yl)-2-(4-methoxyphenyl)-6-pyridin-3-yl-3H-imidazo[4,5-b]pyridine]
2 | 1.7 | CN(C)c1ccc(-c2nc3cc(-c4ccncc4F)c(-c4cccnc4)nc3[nH]2)cc1 [Example 7, N-{4-[6-(3-Fluoropyridin-4-yl)-5-pyridin-3-yl-3H-imidazo[4,5-b]pyridin-2-yl]phenyl}-N,N-dimethylamine]
3 | 8 | O=C(O)c1ccc(-c2nc3cc(-c4ccncc4F)c(-c4cccnc4)nc3[nH]2)cc1 [Example 11, 4-[6-(3-Fluoropyridin-4-yl)-5-pyridin-3-yl-3H-imidazo[4,5-b]pyridin-2-yl]benzoic acid]
4 | 1.8 | Fc1cnccc1-c1cc2nc(-c3ccncc3)[nH]c2nc1-c1cccnc1 [Example 12, 6-(3-Fluoropyridin-4-yl)-5-pyridin-3-yl-2-pyridin-4-yl-3H-imidazo[4,5-b]pyridine]
5 | 24 | Fc1ccc(Cc2nc3cc(-c4ccncc4F)c(-c4cccnc4)nc3[nH]2)cc1 [Example 16, 2-(4-Fluorobenzyl)-6-(3-fluoropyridin-4-yl)-5-pyridin-3-yl-3H-imidazo[4,6-b]pyridine]
6 | 7 | O=c1[nH]c2cc(-c3ccncc3)c(-c3ccncc3F)nc2[nH]1 [Example 23, 5-(3-Fluoropyridin-4-yl)-6-pyridin-4-yl-1,3-dihydro-2H-imidazo[4,5-b]pyridin-2-one]
7 | 24 | O=c1[nH]c2cc(-c3ccncc3F)c(-c3ncco3)nc2[nH]1 [Example 32, 6-(3-Fluoropyridin-4-yl)-5-(1,3-oxazol-2-yl)-1,3-dihydro-2H-imidazo[4,5-b]pyridin-2-one]
8 | 2.2 | Cc1ccc(-c2nc3cc(-c4ccncc4F)c(-c4cccnc4)nc3[nH]2)cc1F [Example 37, 2-(3-Fluoro-4-methylphenyl)-6-(3-fluoropyridin-4-yl)-5-pyridin-3-yl-3H-imidazo[4,5-b]pyridine]
9 | 2.8 | Fc1cccc(-c2nc3cc(-c4ccncc4F)c(-c4cccnc4)nc3[nH]2)c1 [Example 38, 2-(3-Fluorophenyl)-6-(3-fluoropyridin-4-yl)-5-pyridin-3-yl-3H-imidazo[4,6-b]pyridine]
10 | 3.8 | Fc1cnccc1-c1cc2nc(-c3cccnc3)[nH]c2nc1-c1cccnc1 [Example 39, 6-(3-Fluoropyridin-4-yl)-2,5-dipyridin-3-yl-3H-imidazo[4,5-b]pyridine]
11 | 9.5 | Cn1cncc1-c1nc2cc(-c3ccncc3F)c(-c3cccnc3)nc2[nH]1 [Example 46, 6-(3-Fluoropyridin-4-yl)-2-(1-methyl-1H-imidazol-5-yl)-5-pyridin-3-yl-3H-imidazo[4,5-b]pyridine]
12 | 2.8 | Fc1ccc(-c2nc3cc(-c4c(F)cncc4F)c(-c4cccnc4)nc3[nH]2)cc1 [Example 65, 6-(3,5-Difluoropyridin-4-yl)-2-(4-fluorophenyl)-5-pyridin-3-yl-3H-imidazo[4,5-b]pyridine]
13 | 23 | O=C(O)c1ccc(-c2nc3cc(-c4c(F)cncc4F)c(-c4cccnc4)nc3[nH]2)cc1 [Example 66, 4-[6-(3,5-Difluoropyridin-4-yl)-5-pyridin-3-yl-3H-imidazo[4,5-b]pyridin-2-yl]benzoic acid]
14 | 26 | O=c1[nH]c2cc(-c3c(F)cncc3F)c(-c3cccnc3)nc2[nH]1 [Example 67, 6-(3,5-Difluoropyridin-4-yl)-5-pyridin-3-yl-1,3-dihydro-2H-imidazo[4,5-b]pyridin-2-one]
